These results are taken from patent US9346812B2, “Substituted pyrrolopyrimidine compounds, compositions thereof, and methods of treatment therewith” (Signal Pharmaceutical LLC, priority 2013, dated 2016).

This assay deals with CAL51 cell proliferation. As to the kind of experiment: Cell Titer Glo Proliferation Assay (CAL51). To be noted: CAL51 cell proliferation, 72 h, Cell Titer Glo luminescence, read-out: Act. Level. The assay is classed as cell-based, human. As to the method: Cell Titer Glo Proliferation Assay. Triple negative breast cancer cell line CAL51 was purchased from DSMZ. […] Allcell lines were maintained in growth media consisting of 90% high glucose Dulbecco's Modified Eagle Medium or RPMI1640 (Invitrogen), 10% fetal bovine serum (Hyclone), and 2 mM L-glutamine (Invitrogen). […] After overnight culture, compound stock (30 mM) was diluted serially in DMSO, further diluted in growth media, and was added to each well as a 10× concentrated solution in a volume of 11 μL, mixed, and allowed to incubate with cells. The compound vehicle (DMSO) was maintained at a final concentration of 0.2% in all wells. After 72 h, 100 μL of Cell Titer Glo solution (Promega) was added to each well of the 96-well plate. The plate was placed on a shaker for 2 minutes. After 10 minutes incubation, the luminescence signal was detected with Envision microplate reader (Perkin Elmer).

Where two headings read alike, the source gives them in different places.

In the case of `CNC(=O)c1ccc(Nc2nc(OC3CCCC3)c3c(-c4ccc(O)c(F)c4)c[nH]c3n2)c(OC)c1` [Example 42, 4-(4-(cyclopentyloxy)-5-(3-fluoro-4-hydroxyphenyl)-7H-pyrrolo[2,3-d]pyrimidin-2-ylamino)-3-methoxy-N-methylbenzamide], where the note is “Homo sapiens, CAL-51”, the IC50 is below 100 nM. Same read-out and setting: next, `COc1nc(Nc2ccc(C(=O)N(C)C)cc2Cl)nc2[nH]cc(-c3ccc(-c4nnc[nH]4)cc3)c12` [Example 53, 4-(5-(4-(4H-1,2,4-triazol-3-yl)phenyl)-4-methoxy-7H-pyrrolo [2,3-d]pyrimidin-2-ylamino)-3-chloro-N,N-dimethylbenzamide]: 100 to 400 nM; `COc1cc(C(=O)N2CCCC2)ccc1Nc1nc(OC2CCCC2)c2c(-c3ccc4nc(C)oc4c3)c[nH]c2n1` [Example 249, (4-(4-(cyclopentyloxy)-5-(2-methylbenzo[d]oxazol-6-yl)-7H-pyrrolo[2,3-d]pyrimidin-2-ylamino)-3-methoxyphenyl) (pyrrolidin-1-yl)methanone]: 100 to 400 nM; `Cc1nc2ccc(-c3c[nH]c4nc(Nc5ccc6c(c5)CNC6=O)nc(OC5CCCC5)c34)cc2o1` [Example 235, 5-(4-(cyclopentyloxy)-5-(2-methylbenzo[d]oxazol-6-yl)-7H-pyrrolo[2,3-d]pyrimidin-2-ylamino)isoindolin-1-one]: below 100 nM. On the same count and under the same terms, the value for `CNC(=O)c1cccc(-c2c[nH]c3nc(Nc4ccc(C(=O)NC)cc4OC)nc(OC4CCCC4)c23)c1` [Example 59, 4-(4-(cyclopentyloxy)-5-(3-(methylcarbamoyl)phenyl)-7H-pyrrolo[2,3-d]pyrimidin-2-ylamino)-3-methoxy-N-methylbenzamide] was 100 to 400 nM; that for `COc1cc(C#N)ccc1Nc1nc(OC2CCCC2)c2c(-c3ccc4nc(C)oc4c3)c[nH]c2n1` [Example 277, 4-(4-(cyclopentyloxy)-5-(2-methylbenzo[d]oxazol-6-yl)-7H-pyrrolo[2,3-d]pyrimidin-2-ylamino)-3-methoxybenzonitrile] was 100 to 400 nM; that for `CNC(=O)c1ccc(Nc2nc(OC3CCOCC3)c3c(-c4ccc5nc(C)oc5c4)c[nH]c3n2)c(OC(F)(F)F)c1` [Example 192, N-methyl-4-(5-(2-methylbenzo[d]oxazol-6-yl)-4-(tetrahydro-2H-pyran-4-yloxy)-7H-pyrrolo[2,3-d]pyrimidin-2-ylamino)-3-(trifluoromethoxy)benzamide] was 100 to 400 nM.

For the compound `COCCN(C)C(=O)c1ccc(Nc2nc(OC3CCCC3)c3c(-c4ccc5nc(C)oc5c4)c[nH]c3n2)c(OC)c1` [Example 284, 4-(4-(cyclopentyloxy)-5-(2-methylbenzo[d]oxazol-6-yl)-7H-pyrrolo[2,3-d]pyrimidin-2-ylamino)-3-methoxy-N-(2-methoxyethyl)-N-methylbenzamide], where the note is “Homo sapiens, CAL-51”, the IC50 is below 100 nM. Same read-out and setting: the value for `COc1cc(C(N)=O)ccc1Nc1nc(OC2CCCC2)c2c(-c3ccc(O)cc3)c[nH]c2n1` [Example 44, 4-(4-(cyclopentyloxy)-5-(4-hydroxyphenyl)-7H-pyrrolo[2,3-d]pyrimidin-2-ylamino)-3-methoxybenzamide] was below 100 nM; that for `COc1cc(C(=O)N2C[C@@H](O)[C@H](OC)C2)ccc1Nc1nc(OC2CCCC2)c2c(-c3ccc4nc(C)oc4c3)c[nH]c2n1` [Example 291, (4-(4-(cyclopentyloxy)-5-(2-methylbenzo[d]oxazol-6-yl)-7H-pyrrolo[2,3-d]pyrimidin-2-ylamino)-3-methoxyphenyl) ((3R,4R)-3-hydroxy-4-methoxypyrrolidin-1-yl) methanone] was below 100 nM.

`COc1cc(C(=O)NC2CCCOC2)ccc1Nc1nc(OC2CCCC2)c2c(-c3ccc4nc(C)oc4c3)c[nH]c2n1` (stereo not drawn) [Example 274, 4-(4-(cyclopentyloxy)-5-(2-methylbenzo[d]oxazol-6-yl)-7H-pyrrolo[2,3-d]pyrimidin-2-ylamino)-3-methoxy-N-(tetrahydro-2H-pyran-3-yl) benzamide]: the IC50 is below 100 nM.

In the case of `COc1cc(C(=O)NCC(C)(C)O)ccc1Nc1nc(OC2CCCC2)c2c(-c3ccc4nc(C)oc4c3)c[nH]c2n1` [Example 285, 4-(4-(cyclopentyloxy)-5-(2-methylbenzo[d]oxazol-6-yl)-7H-pyrrolo[2,3-d]pyrimidin-2-ylamino)-N-(2-hydroxy-2-methylpropyl)-3-methoxybenzamide], the IC50 (Homo sapiens, CAL-51) was 100 to 400 nM.

As for `COc1cc(C(=O)NC(C)(C)CO)ccc1Nc1nc(OC2CCCC2)c2c(-c3ccc4nc(C)oc4c3)c[nH]c2n1` [Example 234, 4-(4-(cyclopentyloxy)-5-(2-methylbenzo[d]oxazol-6-yl)-7H-pyrrolo[2,3-d]pyrimidin-2-ylamino)-N-(1-hydroxy-2-methylpropan-2-yl)-3-methoxybenzamide], for the setting “Homo sapiens, CAL-51”, the IC50 lay in the range of 100 to 400 nM.

Turning to `CNC(=O)c1ccc(-c2c[nH]c3nc(Nc4ccc(C(=O)NC)cc4OC)nc(OC4CCOCC4)c23)cc1` [Example 123, 3-methoxy-N-methyl-4-(5-(4-(methylcarbamoyl)phenyl)-4-(tetrahydro-2H-pyran-4-yloxy)-7H-pyrrolo[2,3-d]pyrimidin-2-ylamino) benzamide], the IC50 (Homo sapiens, CAL-51) was below 100 nM. `CNC(=O)c1ccc(Nc2nc(NC3CCOCC3)c3c(-c4cnn(C)c4)c[nH]c3n2)c(OC)c1` [Example 210, 3-methoxy-N-methyl-4-(5-(1-methyl-1H-pyrazol-4-yl)-4-(tetrahydro-2H-pyran-4-ylamino)-7H-pyrrolo[2,3-d]pyrimidin-2-ylamino)benzamide]: the IC50 (Homo sapiens, CAL-51) is below 100 nM. Still for that read-out and setting: next, `Cc1nc2ccc(-c3c[nH]c4nc(Nc5ccc(C(=O)N(C)C)cc5C)nc(O[C@H]5CC[C@H](O)CC5)c34)cc2o1` [Example 92, 4-(4-((1r,4r)-4-hydroxycyclo-hexyloxy)-5-(2-methylbenzo[d]oxazol-6-yl)-7H-pyrrolo[2,3-d]pyrimidin-2-ylamino)-N,N,3-trimethylbenzamide]: below 100 nM.

Take `CNC(=O)c1ccc(Nc2nc(OC3CC3)c3c(-c4ccn(C)n4)c[nH]c3n2)c(OC)c1` [Example 218, 4-(4-cyclopropoxy-5-(1-methyl-1H-pyrazol-3-yl)-7H-pyrrolo[2,3-d]pyrimidin-2-ylamino)-3-methoxy-N-methylbenzamide]: the IC50 lay within 1000 to 10000 nM. As to `CNC(=O)c1ccc(Nc2nc(OC3CCCC3)c3c(-c4ccc(O)cc4)c[nH]c3n2)c(C)c1` [Example 9], the IC50 (Homo sapiens, CAL-51) was below 100 nM.

Consider `CNC(=O)c1ccc(Nc2nc(OC3CCC3)c3c(-c4ccc5nc(C)oc5c4)c[nH]c3n2)c(OC)c1` [Example 198, 4-(4-cyclobutoxy-5-(2-methylbenzo[d]oxazol-6-yl)-7H-pyrrolo[2,3-d]pyrimidin-2-ylamino)-3-methoxy-N-methylbenzamide], for which, for the setting “Homo sapiens, CAL-51”, the IC50 was below 100 nM. Take `COc1cc(C(=O)N2C[C@@H]2C)ccc1Nc1nc(OC2CCCC2)c2c(-c3ccc4nc(C)oc4c3)c[nH]c2n1` [Example 313, (S)-(4-(4-(cyclopentyloxy)-5-(2-methylbenzo[d]oxazol-6-yl)-7H-pyrrolo[2,3-d]pyrimidin-2-ylamino)-3-methoxyphenyl)(2-methylaziridin-1-yl)methanone]: where the note is “Homo sapiens, CAL-51”, the IC50 lay in the range of 400 to 1000 nM. Same read-out and setting: the value for `COc1cc(C(=O)N2CC2)ccc1Nc1nc(OC2CCCC2)c2c(-c3ccc4nc(C)oc4c3)c[nH]c2n1` [Example 262, aziridin-1-yl(4-(4-(cyclopentyl-oxy)-5-(2-methylbenzo[d]oxazol-6-yl)-7H-pyrrolo[2,3-d]pyrimidin-2-ylamino)-3-methoxyphenyl) methanone] was 100 to 400 nM; that for `CNC(=O)c1ccc(Nc2nc(OC3CCOCC3)c3c(-c4ccc(O)cc4)c[nH]c3n2)c(Cl)c1` [Example 29, 3-chloro-4-(5-(4-hydroxyphenyl)-4-(tetrahydro-2H-pyran-4-yloxy)-7H-pyrrolo[2,3-d]pyrimidin-2-ylamino)-N-methylbenzamide] was below 100 nM; that for `Cc1cc(C(=O)N(C)C)ccc1Nc1nc(OC2CCOCC2)c2c(-c3cnn(C)c3)c[nH]c2n1` [Example 112, N,N,3-trimethyl-4-(5-(1-methyl-1H-pyrazol-4-yl)-4-(tetrahydro-2H-pyran-4-yloxy)-7H-pyrrolo[2,3-d]pyrimidin-2-ylamino)benzamide] was below 100 nM. The same measure, in the same setting: the value for `CNC(=O)c1cccc(-c2c[nH]c3nc(Nc4ccc(C(=O)NC)cc4C)nc(OC)c23)c1` [Example 149, 4-(4-methoxy-5-(3-(methylcarbamoyl)phenyl)-7H-pyrrolo[2,3-d]pyrimidin-2-ylamino)-N,3-dimethylbenzamide] was 1000 to 10000 nM.

Consider `CNC(=O)c1ccc(Nc2nc(OC3CCCC3)c3c(-c4cccnc4)c[nH]c3n2)c(OC)c1` [Example 58, 4-(4-(cyclopentyloxy)-5-(pyridin-3-yl)-7H-pyrrolo[2,3-d]pyrimidin-2-ylamino)-3-methoxy-N-methylbenzamide], for which, where the note is “Homo sapiens, CAL-51”, the IC50 is below 100 nM.

For the compound `COc1cc(C(=O)NC2CN(C(C)=O)C2)ccc1Nc1nc(OC2CCCC2)c2c(-c3ccc4nc(C)oc4c3)c[nH]c2n1` [Example 308, N-(1-acetylazetidin-3-yl)-4-(4-(cyclopentyloxy)-5-(2-methylbenzo[d]oxazol-6-yl)-7H-pyrrolo[2,3-d]pyrimidin-2-ylamino)-3-methoxybenzamide], the IC50 (Homo sapiens, CAL-51) lay within 100 to 400 nM.

As to `CNC(=O)c1ccc(Nc2nc(O[C@H]3CC[C@@H](O)CC3)c3c(-c4ccc(O)cc4)c[nH]c3n2)c(OC)c1` [Example 46, 4-(4-((1s,4s)-4-hydroxycyclo-hexyloxy)-5-(4-hydroxyphenyl)-7H-pyrrolo[2,3-d]pyrimidin-2-ylamino)-3-methoxy-N-methylbenzamide], the IC50 (Homo sapiens, CAL-51) was below 100 nM.
